In brackets after ≈: the same amount, converted by molar mass.
What was measured:
[1] = prior art material of CN103108859; cited from earlier work
[2] = cited from earlier work
[3] = Hole mobility rate of the hole transporting material; assay type: physicochemical; conditions: hole transporting layer material
Solubility in NMP = assay type: physicochemical; conditions: NMP solvent
[4] = commercially available hole transporting layer material

Row | Compound | hole mobility rate [3] | other results
1 | CC1(C)c2ccccc2-c2ccc(N(c3ccc4c(c3)C3(c5ccccc5-c5ccccc53)c3ccccc3-4)c3ccccc3-c3ccccc3)cc21 | – | solubility [1]: good; mobility rate ([2]; prior art material of CN103108859): higher
2 | c1ccc(-c2ccc(N(c3ccc(-c4ccccc4)cc3)c3ccc(-c4ccc(N(c5ccc(-c6ccccc6)cc5)c5ccc(-c6ccccc6)cc5)cc4)cc3)cc2)cc1 [Com. Example 1] | 3×10^−4 cm^2/V·S | –
3 | Cc1ccc(-c2ccc(N(c3ccc(-c4ccccc4)cc3)c3ccc(-c4ccc(N(c5ccc(-c6ccccc6)cc5)c5ccc(-c6ccc(C)cc6)cc5)cc4)cc3)cc2)cc1 [Com. Example 2] | 3.5×10^−4 cm^2/V·S | solubility in NMP (Solubility in NMP): 2200 µg/mL (≈ 2.68 mM)
4 | c1ccc(-c2ccc(N(c3ccc(-c4ccccc4)cc3)c3ccc(N(c4ccc(-c5ccccc5)cc4)c4ccc(-c5ccccc5)cc4)cc3)cc2)cc1 [Com. Example 4] | 2×10^−4 cm^2/V·S | –
5 | Cc1ccc(-c2ccc(N(c3ccc(-c4ccccc4)cc3)c3ccc(-c4ccc(N(c5ccc(-c6ccccc6)cc5)c5ccc(-c6ccc(C)cc6)cc5)c5c4CCCC5)cc3)cc2)cc1 [Example 1] | 0.00041 cm²/(V·s) | solubility in NMP (Solubility in NMP): 10000 µg/mL (≈ 11.4 mM)
6 | c1ccc(-c2ccc(N(c3ccc(-c4ccccc4)cc3)c3ccc(N(c4ccc(-c5ccccc5)cc4)c4ccc(-c5ccccc5)cc4)cc3)cc2)cc1 [drawing 1] | – | lateral mobility rate [2, 4]: not very high; longitudinal mobility rate [2, 4]: higher

More lines, main results first:

Row | hole mobility rate [3] | Compound | other results
7 | 7×10^−5 cm^2/V·S | c1ccc(-c2ccc(N(c3ccc(-c4ccccc4)cc3)c3ccc(-c4ccc(N(c5ccc(-c6ccccc6)cc5)c5ccc(-c6ccccc6)cc5)c5c4CCCC5)cc3)cc2)cc1 [Com. Example 3] | –
8 | 2.1×10^−4 cm^2/V·S | Cc1cccc(-c2ccc(N(c3ccc(-c4cccc5c4CCCC5)cc3)c3ccc(-c4ccc(N(c5ccc(-c6cccc(C)c6)cc5)c5ccc(-c6cccc7c6CCCC7)cc5)c5c4CCCC5)cc3)cc2)c1 [Example 2] | –
9 | 1.8×10^−4 cm^2/V·S | Cc1cc(N(c2ccc(-c3ccccc3)cc2)c2ccc(-c3cccc4c3CCCC4)cc2)ccc1-c1ccc(N(c2ccc(-c3ccccc3)cc2)c2ccc(-c3cccc4c3CCCC4)cc2)cc1 [Example 3] | –
10 | 1.9×10^−4 cm^2/V·S | Cc1ccccc1-c1ccc(N(c2ccc(-c3ccccc3)cc2)c2ccc(-c3ccc(N(c4ccc(-c5ccccc5)cc4)c4ccc(-c5ccccc5C)c5c4CCCC5)c4c3CCCC4)cc2)c2c1CCCC2 [Example 4] | –

Reference: patent publication US10686136B2, “Hole transporting material, OLED display panel and electronic device comprising the same” (SHANGHAI TIANMA AM-OLED CO., LTD., priority 2016, dated 2020)
